Assay results reported in patent US9937165B2, “Pharmacological chaperones for treating obesity” (Amicus Therapeutics, Inc., priority 2005, dated 2018).
Square brackets hold non-standard residues; d marks the D form. d2Nal = N[C@H](Cc1ccc2ccccc2c1)C(=O)O; Nle = CCCC[C@H](N)C(=O)O

Legend:
MC4R [1] = molecular target: T1, MC4R (Homo sapiens, UniProt P32245); conditions: cited from earlier work
hMC4R mutant S58C = molecular target: T2, hMC4R mutant S58C (Homo sapiens, UniProt P32245, S58C); assay: Pharmacological chaperone assay, cell surface expression by FACS, mutant S58C; assay type: cell-based
T2 construct: expressed in transfected cells; host or cells: HEK 293 cells, transient transfection
Method: (§1) HEK 293 cells were transiently transfected with wild-type (WT) or the following hMC4R mutants double tagged with 3HA and Venus (Enhanced Yellow Green Fluorescent Protein; EYFP): S58C; N62S; R165W; R165Q, and P299H.
(§2) FACS analysis was performed after fluorescently labeling cells with primary anti-HA.11 antibody (mouse; 1:1000 dilution) and the secondary antibody coupled to Alexa 647 (goat anti-mouse; 1:1000 dilution) dilution. Live cells (propidium iodide negative) were sorted into the following two relevant populations: • P4: Total YFP positive cells (representative of total MC4R expression) • P5: Percent of cells positive for both YFP and Alexa 647 (Alexa and YFP positive cells)/(YFP positive cells+Alexa and YFP positive cells) (representative of cell surface expression)
(§3) Briefly, cells harboring each of the above-referenced MC4R mutants (transfected as described in Example 3) were cultured with each of the antagonist compounds at concentrations of 1.0 μM and 10 μM for 12 h and evaluated for cell surface expression of MC4R using fluorescent activated cell sorting analysis as described above. Cell surface expression levels are compared between treatment and basal conditions. Percent Gain is determined according to the following: [Gain=[(% of surface expression (with treatment)−% of surface expression (w/o treatment))/% of surface expression (w/o treatment)]*100.

hMC4R mutant R165W = molecular target: T3, hMC4R mutant R165W (Homo sapiens, UniProt P32245, R165W); assay: Pharmacological chaperone assay, cell surface expression by FACS, mutant R165W; assay type: cell-based
T3 construct: expressed in transfected cells; host or cells: HEK 293 cells, transient transfection
Method: as §1, §2, §3

[2] = test system: WT and mutant hMC4R (S58C; N62S; R165W; R165Q; P299H) in HEK 293 cells; assay: Chemical chaperone assay, MC4R cell surface expression by FACS; assay type: cell-based, human; conditions: 1% DMSO, 12 hours
Method: as §1
WT and transiently transfected cells were incubated in the presence or absence of 1% DMSO for 12 hours prior to evaluation of MC4R cells surface expression.
as §2

hMC4R mutant R165Q = molecular target: T4, hMC4R mutant R165Q (Homo sapiens, UniProt P32245, R165Q); assay: Pharmacological chaperone assay, cell surface expression by FACS, mutant R165Q; assay type: cell-based; conditions: 12 h
T4 construct: expressed in transfected cells; host or cells: HEK 293 cells, transient transfection
Method: as §1, §2, §3

hMC4R mutant P299H = molecular target: T5, hMC4R mutant P299H (Homo sapiens, UniProt P32245, P299H); assay: Pharmacological chaperone assay, cell surface expression by FACS, mutant P299H; assay type: cell-based; conditions: 12 h
T5 construct: expressed in transfected cells; host or cells: HEK 293 cells, transient transfection
Method: as §1, §2, §3

hMC4R mutant N62S = molecular target: T6, hMC4R mutant N62S (Homo sapiens, UniProt P32245, N62S); assay: Pharmacological chaperone assay, cell surface expression by FACS, mutant N62S; assay type: cell-based; conditions: 12 h
T6 construct: expressed in transfected cells; host or cells: HEK 293 cells, transient transfection
Method: as §1, §2, §3

MC4R over MC3R = MC4R over MC3R (Homo sapiens, UniProt P32245); conditions: cited from earlier work
MC4R [3] = molecular target: T1, MC4R; conditions: MC4R antagonist; cited from earlier work
[4] = molecular target: MC4R as compared to the MC3R (Homo sapiens, UniProt P32245); conditions: cited from earlier work
[5] = molecular target: MC4R as compared to the MC5R (Homo sapiens, UniProt P32245); conditions: cited from earlier work
Chain of MC4R as compared to the MC5R (P32245 whole entry): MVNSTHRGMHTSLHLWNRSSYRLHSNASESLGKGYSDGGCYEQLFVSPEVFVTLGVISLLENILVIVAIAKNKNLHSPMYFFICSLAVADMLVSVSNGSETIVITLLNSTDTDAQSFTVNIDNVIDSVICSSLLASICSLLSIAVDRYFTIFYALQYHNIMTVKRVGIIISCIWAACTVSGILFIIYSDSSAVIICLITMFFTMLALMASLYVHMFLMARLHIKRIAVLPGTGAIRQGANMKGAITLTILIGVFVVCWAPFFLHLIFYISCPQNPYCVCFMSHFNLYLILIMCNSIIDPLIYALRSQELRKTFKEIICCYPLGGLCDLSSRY

T5 sequence (P32245 whole entry P299H): as the sequence (P32245 whole entry) above, with P299H counted along it
T3 sequence (P32245 whole entry R165W): as the sequence (P32245 whole entry) above, with R165W counted along it
T2 sequence (P32245 whole entry S58C): as the sequence (P32245 whole entry) above, with S58C counted along it
T6 sequence (P32245 whole entry N62S): as the sequence (P32245 whole entry) above, with N62S counted along it
T4 sequence (P32245 whole entry R165Q): as the sequence (P32245 whole entry) above, with R165Q counted along it
T1 sequence (P32245 whole entry): as the sequence (P32245 whole entry) above
Chain of MC4R over MC3R (P32245 whole entry): as above
Chain of MC4R as compared to the MC3R (P32245 whole entry): as above

## O=C(N[C@H](Cc1ccc(Cl)cc1)C(=O)N1CCN(c2ccccc2CN2CCCC2)CC1)[C@H]1Cc2ccccc2CN1 [Compound 2]
MC4R [1]
  EC50: 39 nM

## COc1ccc(Cl)cc1Nc1nc(-c2sc(NC(=O)c3ccccc3)nc2C)cs1 [Compound 5]
hMC4R mutant S58C; concentration not given
  % Gain in cell surface expression: 31.25%
hMC4R mutant R165W; concentration not given
  % Gain in cell surface expression: 28.95%

## C[S+](C)[O-] [DMSO]
[2]
  enhancement of MC4R cell surface expression: No significant enhancement

## CC(CN1CCN(CC(c2ccc(F)cc2)N2CCN(C)CC2)CC1)C(=O)c1ccccc1 (centres unmarked) [Compound 3]
hMC4R mutant S58C; 1 μM, 12 h
  % Gain in cell surface expression: 77.5%
hMC4R mutant S58C; 10 μM, 12 h
  % Gain in cell surface expression: 130%
hMC4R mutant R165Q; 1 μM
  % Gain in cell surface expression: 300%
hMC4R mutant R165Q; 10 μM
  % Gain in cell surface expression: 508%
hMC4R mutant P299H; 1 μM
  % Gain in cell surface expression: 27.78%
hMC4R mutant P299H; 10 μM
  % Gain in cell surface expression: 77.78%
hMC4R mutant P299H; 10 μM, listed as compound shown in FIG. 5
  % Gain in cell surface expression: only a small effect
hMC4R mutant R165W; 1 μM, 12 h
  % Gain in cell surface expression: 467%
hMC4R mutant R165W; 10 μM, 12 h
  % Gain in cell surface expression: 675%
hMC4R mutant N62S; 1 μM
  % Gain in cell surface expression: 25%
hMC4R mutant N62S; 10 μM
  % Gain in cell surface expression: 343.75%
hMC4R mutant N62S; 10 μM, listed as compound depicted in FIG. 5
  % Gain in cell surface expression: more potent

## Ac-Nle-c[Asp-Che-DNal(2′)-Arg-Trp-Lys-NH(2) [SHU9119 analogue, cyclic MC4R antagonist of Grieco et al., J Med Chem 2002]
MC4R over MC3R
  selectivity over MC3R: 100 fold
MC4R [3]
  IC50: 0.48 nM

## Ac-Nle-Gly-Lys-D-Nal(2)-Arg-Trp-Gly-NH(2) (Ac-[Nle]GK[d2Nal]RWG-NH2; SMILES CCCC[C@H](NC(C)=O)C(=O)NCC(=O)N[C@@H](CCCCN)C(=O)N[C@H](Cc1ccc2ccccc2c1)C(=O)N[C@@H](CCCNC(=N)N)C(=O)N[C@@H](Cc1c[nH]c2ccccc12)C(=O)NCC(N)=O)
[4]
  selectivity for the MC4R as compared to the MC3R: 34 fold
[5]
  selectivity for the MC4R as compared to the MC5R: 109 fold
